Reference: patent publication US20260053812A1, “METHODS OF TREATING HYPERTENSION WITH A COMBINATION OF AN ALDOSTERONE SYNTHASE INHIBITOR AND A DIURETIC” (Mineralys Therapeutics, Inc., priority 2022, published 2026)

Test: Adverse events (TEAEs, SAEs, AESI; Safety Analysis Set)
Source text: In analyses performed on the Safety Analysis Set, subjects will be analyzed according to their actual treatment received.

CC(=O)N[C@H]1CC[C@H](NC(=O)CN2CCN(c3nncc(-c4ccc(C)cc4)n3)CC2)CC1 [Compound A HBr]
On-treatment TEAE, Vascular disorders, Mild, % (Part 1, 12.5 mg QD (N = 23)): (8.7) % | On-treatment TEAE, Vascular disorders, Moderate, % (Part 1, 12.5 mg QD (N = 23)): (4.3) % | Subjects with any On-treatment TEAEs leading to withdrawal from study drug, % (Part 1, 12.5 mg QD (N = 23)): (17.4) % | Subjects with any On-treatment TEAEs, Mild, % (Part 1, 12.5 mg QD (N = 23)): (52.2) % | Subjects with any On-treatment TEAEs, Moderate, % (Part 1, 12.5 mg QD (N = 23)): (13.0) % | Subjects with any On-treatment TEAEs, Severe, % (Part 1, 12.5 mg QD (N = 23)): (4.3) % | TEAE leading to permanent discontinuation from study drug, Cardiac disorders, % (Part 1, 12.5 mg QD (N = 23)): (4.3) % | TEAE leading to permanent discontinuation from study drug, Coronary artery disease, % (Part 1, 12.5 mg QD (N = 23)): (4.3) % | TEAE leading to permanent discontinuation from study drug, Dizziness, % (Part 1, 12.5 mg QD (N = 23)): (4.3) % | TEAE leading to permanent discontinuation from study drug, Hyperkalaemia, % (Part 1, 12.5 mg QD (N = 23)): (8.7) % | TEAE leading to permanent discontinuation from study drug, Metabolism and nutrition disorders, % (Part 1, 12.5 mg QD (N = 23)): (8.7) % | TEAE leading to permanent discontinuation from study drug, Nervous system disorders, % (Part 1, 12.5 mg QD (N = 23)): (4.3) % | On-treatment TEAE, Blood and lymphatic system disorders, % (Part 1, 25 mg BID (N = 30)): (6.7) % | On-treatment TEAE, Blood and lymphatic system disorders, Mild, % (Part 1, 25 mg BID (N = 30)): (6.7) % | On-treatment TEAE, Cortisol decreased, % (Part 1, 25 mg BID (N = 30)): (3.3) % | On-treatment TEAE, Cortisol decreased, Mild, % (Part 1, 25 mg BID (N = 30)): (3.3) % | On-treatment TEAE, Gastrointestinal disorders, % (Part 1, 25 mg BID (N = 30)): (3.3) % | On-treatment TEAE, Gastrointestinal disorders, Mild, % (Part 1, 25 mg BID (N = 30)): (3.3) % | On-treatment TEAE, Headache, % (Part 1, 25 mg BID (N = 30)): (6.7) % | On-treatment TEAE, Headache, Mild, % (Part 1, 25 mg BID (N = 30)): (6.7) % | On-treatment TEAE, Hyperkalaemia, % (Part 1, 25 mg BID (N = 30)): (30.0) % | On-treatment TEAE, Hyperkalaemia, Mild, % (Part 1, 25 mg BID (N = 30)): (23.3) % | On-treatment TEAE, Hyperkalaemia, Moderate, % (Part 1, 25 mg BID (N = 30)): (6.7) % | On-treatment TEAE, Hypertension, % (Part 1, 25 mg BID (N = 30)): (3.3) % | On-treatment TEAE, Infections and infestations, % (Part 1, 25 mg BID (N = 30)): (10.0) % | On-treatment TEAE, Infections and infestations, Mild, % (Part 1, 25 mg BID (N = 30)): (6.7) % | On-treatment TEAE, Infections and infestations, Moderate, % (Part 1, 25 mg BID (N = 30)): (3.3) % | On-treatment TEAE, Investigations, % (Part 1, 25 mg BID (N = 30)): (10.0) % | On-treatment TEAE, Investigations, Mild, % (Part 1, 25 mg BID (N = 30)): (6.7) % | On-treatment TEAE, Investigations, Moderate, % (Part 1, 25 mg BID (N = 30)): (3.3) % | On-treatment TEAE, Metabolism and nutrition disorders, % (Part 1, 25 mg BID (N = 30)): (33.3) % | On-treatment TEAE, Metabolism and nutrition disorders, Mild, % (Part 1, 25 mg BID (N = 30)): (26.7) % | On-treatment TEAE, Metabolism and nutrition disorders, Moderate, % (Part 1, 25 mg BID (N = 30)): (6.7) % | On-treatment TEAE, Nervous system disorders, % (Part 1, 25 mg BID (N = 30)): (10.0) % | On-treatment TEAE, Nervous system disorders, Mild, % (Part 1, 25 mg BID (N = 30)): (6.7) % | On-treatment TEAE, Urinary tract infection, % (Part 1, 25 mg BID (N = 30)): (10.0) % | On-treatment TEAE, Urinary tract infection, Mild, % (Part 1, 25 mg BID (N = 30)): (6.7) % | On-treatment TEAE, Vascular disorders, % (Part 1, 25 mg BID (N = 30)): (3.3) % | On-treatment TEAE, Vascular disorders, Mild, % (Part 1, 25 mg BID (N = 30)): (3.3) % | Subjects with any On-treatment TEAEs leading to withdrawal from study drug, % (Part 1, 25 mg BID (N = 30)): 3.3% | Subjects with any On-treatment TEAEs, Mild, % (Part 1, 25 mg BID (N = 30)): (46.7) % | Subjects with any On-treatment TEAEs, Moderate, % (Part 1, 25 mg BID (N = 30)): (13.3) % | TEAE leading to permanent discontinuation from study drug, Hyperkalaemia, % (Part 1, 25 mg BID (N = 30)): 3.3% | TEAE leading to permanent discontinuation from study drug, Hypertension, % (Part 1, 25 mg BID (N = 30)): 3.3% | TEAE leading to permanent discontinuation from study drug, Metabolism and nutrition disorders, % (Part 1, 25 mg BID (N = 30)): 3.3% | TEAE leading to permanent discontinuation from study drug, Vascular disorders, % (Part 1, 25 mg BID (N = 30)): 3.3% | On-treatment TEAE, Cardiac disorders, % (Part 1, 50 mg QD (N = 28)): (3.6) % | On-treatment TEAE, Dizziness, % (Part 1, 50 mg QD (N = 28)): (7.1) % | On-treatment TEAE, Gastrointestinal disorders, % (Part 1, 50 mg QD (N = 28)): (3.6) % | On-treatment TEAE, Gastrointestinal disorders, Mild, % (Part 1, 50 mg QD (N = 28)): (3.6) % | On-treatment TEAE, General disorders and administration site conditions, % (Part 1, 50 mg QD (N = 28)): (7.1) % | On-treatment TEAE, General disorders and administration site conditions, Mild, % (Part 1, 50 mg QD (N = 28)): (3.6) % | On-treatment TEAE, Headache, % (Part 1, 50 mg QD (N = 28)): (3.6) % | On-treatment TEAE, Headache, Mild, % (Part 1, 50 mg QD (N = 28)): (3.6) % | On-treatment TEAE, Hyperkalaemia, % (Part 1, 50 mg QD (N = 28)): (10.7) % | On-treatment TEAE, Hyperkalaemia, Mild, % (Part 1, 50 mg QD (N = 28)): (10.7) % | On-treatment TEAE, Hypertension, % (Part 1, 50 mg QD (N = 28)): (7.1) % | On-treatment TEAE, Hypertension, Moderate, % (Part 1, 50 mg QD (N = 28)): (7.1) % | On-treatment TEAE, Infections and infestations, % (Part 1, 50 mg QD (N = 28)): (7.1) % | On-treatment TEAE, Infections and infestations, Moderate, % (Part 1, 50 mg QD (N = 28)): (7.1) % | On-treatment TEAE, Investigations, % (Part 1, 50 mg QD (N = 28)): (3.6) % | On-treatment TEAE, Investigations, Mild, % (Part 1, 50 mg QD (N = 28)): (3.6) % | On-treatment TEAE, Metabolism and nutrition disorders, % (Part 1, 50 mg QD (N = 28)): (17.9) % | On-treatment TEAE, Metabolism and nutrition disorders, Mild, % (Part 1, 50 mg QD (N = 28)): (17.9) % | On-treatment TEAE, Nervous system disorders, % (Part 1, 50 mg QD (N = 28)): (7.1) % | On-treatment TEAE, Nervous system disorders, Mild, % (Part 1, 50 mg QD (N = 28)): (3.6) % | On-treatment TEAE, Urinary tract infection, % (Part 1, 50 mg QD (N = 28)): (7.1) % | On-treatment TEAE, Urinary tract infection, Mild, % (Part 1, 50 mg QD (N = 28)): (3.6) % | On-treatment TEAE, Vascular disorders, % (Part 1, 50 mg QD (N = 28)): (7.1) % | On-treatment TEAE, Vascular disorders, Moderate, % (Part 1, 50 mg QD (N = 28)): (7.1) % | Subjects with any On-treatment TEAEs, Mild, % (Part 1, 50 mg QD (N = 28)): (14.3) % | Subjects with any On-treatment TEAEs, Moderate, % (Part 1, 50 mg QD (N = 28)): (21.4) % | On-treatment TEAE, Blood creatinine increased, % (Part 1, 100 mg QD (N = 30)): (10.0) % | On-treatment TEAE, Blood creatinine increased, Mild, % (Part 1, 100 mg QD (N = 30)): (10.0) % | On-treatment TEAE, Gastrointestinal disorders, % (Part 1, 100 mg QD (N = 30)): (6.7) % | On-treatment TEAE, Gastrointestinal disorders, Mild, % (Part 1, 100 mg QD (N = 30)): (6.7) % | On-treatment TEAE, Glomerular filtration rate decreased, % (Part 1, 100 mg QD (N = 30)): (16.7) % | On-treatment TEAE, Glomerular filtration rate decreased, Mild, % (Part 1, 100 mg QD (N = 30)): (13.3) % | On-treatment TEAE, Hyperkalaemia, % (Part 1, 100 mg QD (N = 30)): (26.7) %
